In the NIST ThermoML archive (doi:10.1021/acs.jced.6b00430):
Numbers after ± are expanded uncertainties.

Assay: xn = mol fraction of the nth substance listed
Settings: 100 kPa, Liquid; for electrical conductivity: Alternating current cell with electrodes; for viscosity: Capillary tube (Ostwald / Ubbelohde) method; for mass density: Vibrating tube method

O=[PH](O)O [phosphonic acid] + O
Settings	electrical conductivity [S/m]	mass density [kg/m3]	viscosity [mPa·s]
298.15 K, x1 = 0.0122	7.43 ± 0.75	1022.04 ± 10	0.962 ± 0.058
298.15 K, x1 = 0.0215	10.4 ± 1	1039.69 ± 10	1.05 ± 0.06
298.15 K, x1 = 0.0299	13.4 ± 1.3	1055.02 ± 10	1.17 ± 0.07
298.15 K, x1 = 0.0403	16.9 ± 1.7	1073.24 ± 10	–
298.15 K, x1 = 0.0451	–	1081.91 ± 10	–
298.15 K, x1 = 0.0484	18.5 ± 1.9	1087.03 ± 10	–
298.15 K, x1 = 0.0541	20 ± 2	1096.6 ± 10	–
298.15 K, x1 = 0.0682	22.1 ± 2.2	1119.23 ± 10	–
298.15 K, x1 = 0.0704	22.4 ± 2.2	1122.59 ± 10	1.64 ± 0.1
298.15 K, x1 = 0.0799	23.9 ± 2.4	1137.16 ± 10	–
298.15 K, x1 = 0.0832	–	1141.9 ± 10	–
298.15 K, x1 = 0.1011	25.9 ± 2.6	1167.81 ± 10	2.06 ± 0.12
298.15 K, x1 = 0.1335	26 ± 2.6	1210.62 ± 10	2.6 ± 0.16
298.15 K, x1 = 0.1689	25.7 ± 2.6	1252.12 ± 10	–
298.15 K, x1 = 0.1909	25.2 ± 2.5	1275.45 ± 10	–
298.15 K, x1 = 0.197	25 ± 2.5	1281.23 ± 10	–
298.15 K, x1 = 0.2154	24.5 ± 2.5	1299.73 ± 10	4.24 ± 0.26
298.15 K, x1 = 0.2524	23.1 ± 2.3	1332.1 ± 10	5.19 ± 0.31
298.15 K, x1 = 0.292	20.7 ± 2.1	1363.42 ± 10	6.26 ± 0.38
298.15 K, x1 = 0.3959	15.4 ± 1.5	1434.35 ± 10	–
308.15 K, x1 = 0.0122	7.89 ± 0.79	1018.53 ± 10	0.782 ± 0.047
308.15 K, x1 = 0.0215	11.3 ± 1.1	1035.86 ± 10	0.852 ± 0.051
308.15 K, x1 = 0.0299	14.3 ± 1.4	1050.95 ± 10	0.94 ± 0.057
308.15 K, x1 = 0.0403	18.4 ± 1.8	1068.89 ± 10	–
308.15 K, x1 = 0.0451	–	1077.48 ± 10	–
308.15 K, x1 = 0.0484	20 ± 2	1082.48 ± 10	–
308.15 K, x1 = 0.0541	21.3 ± 2.1	1091.91 ± 10	–
308.15 K, x1 = 0.0682	23.9 ± 2.4	1114.22 ± 10	–
308.15 K, x1 = 0.0704	24.2 ± 2.4	1117.57 ± 10	1.31 ± 0.08
308.15 K, x1 = 0.0799	25.5 ± 2.6	1131.9 ± 10	–
308.15 K, x1 = 0.0832	–	1136.63 ± 10	–
308.15 K, x1 = 0.1011	27.4 ± 2.7	1162.2 ± 10	1.65 ± 0.1
308.15 K, x1 = 0.1335	28.6 ± 2.9	1204.48 ± 10	2.08 ± 0.13
308.15 K, x1 = 0.1689	28.5 ± 2.9	1245.45 ± 10	–
308.15 K, x1 = 0.1909	28.5 ± 2.9	1268.54 ± 10	–
308.15 K, x1 = 0.197	28 ± 2.8	1274.31 ± 10	–
308.15 K, x1 = 0.2154	28 ± 2.8	1292.62 ± 10	3.32 ± 0.2
308.15 K, x1 = 0.2524	25.8 ± 2.6	1324.67 ± 10	4.12 ± 0.25
308.15 K, x1 = 0.292	23.9 ± 2.4	1355.74 ± 10	4.94 ± 0.3
308.15 K, x1 = 0.3959	18.5 ± 1.9	1426.18 ± 10	–
318.15 K, x1 = 0.0122	8.18 ± 0.82	1013.66 ± 10	0.636 ± 0.038
318.15 K, x1 = 0.0215	11.8 ± 1.2	1030.98 ± 10	0.689 ± 0.042
318.15 K, x1 = 0.0299	15 ± 1.5	1045.97 ± 10	0.754 ± 0.046
318.15 K, x1 = 0.0403	19.2 ± 1.9	1063.78 ± 10	–
318.15 K, x1 = 0.0451	–	1072.47 ± 10	–
318.15 K, x1 = 0.0484	20.9 ± 2.1	1077.26 ± 10	–
318.15 K, x1 = 0.0541	22.4 ± 2.2	1086.62 ± 10	–
318.15 K, x1 = 0.0682	25.4 ± 2.5	1108.74 ± 10	–
318.15 K, x1 = 0.0704	25.8 ± 2.6	1112.04 ± 10	1.06 ± 0.06
318.15 K, x1 = 0.0799	27.3 ± 2.7	1126.27 ± 10	–
318.15 K, x1 = 0.0832	–	1130.94 ± 10	–
318.15 K, x1 = 0.1011	29.7 ± 3	1156.21 ± 10	1.32 ± 0.08
318.15 K, x1 = 0.1335	31.3 ± 3.1	1198.05 ± 10	1.66 ± 0.1
318.15 K, x1 = 0.1689	31.5 ± 3.2	1238.7 ± 10	–
318.15 K, x1 = 0.1909	31.2 ± 3.1	1261.54 ± 10	–
318.15 K, x1 = 0.197	30.8 ± 3.1	1267.22 ± 10	–
318.15 K, x1 = 0.2154	30 ± 3	1285.38 ± 10	2.68 ± 0.16
318.15 K, x1 = 0.2524	28.8 ± 2.9	1317.07 ± 10	3.27 ± 0.2
318.15 K, x1 = 0.292	27.2 ± 2.7	1347.86 ± 10	3.9 ± 0.24
318.15 K, x1 = 0.3959	21.1 ± 2.1	1418.01 ± 10	–
328.15 K, x1 = 0.0122	8.38 ± 0.84	1009.46 ± 10	0.529 ± 0.032
328.15 K, x1 = 0.0215	12.1 ± 1.2	1026.28 ± 10	0.567 ± 0.034
328.15 K, x1 = 0.0299	15.3 ± 1.5	1041.02 ± 10	0.617 ± 0.037
328.15 K, x1 = 0.0403	19.6 ± 2	1058.55 ± 10	–
328.15 K, x1 = 0.0451	–	1066.53 ± 10	–
328.15 K, x1 = 0.0484	21.9 ± 2.2	1071.83 ± 10	–
328.15 K, x1 = 0.0541	23.5 ± 2.4	1081.05 ± 10	–
328.15 K, x1 = 0.0682	26.5 ± 2.7	1102.88 ± 10	–
328.15 K, x1 = 0.0704	26.9 ± 2.7	1106.07 ± 10	0.866 ± 0.052
328.15 K, x1 = 0.0799	28.6 ± 2.9	1120.18 ± 10	–
328.15 K, x1 = 0.0832	–	1124.84 ± 10	–
328.15 K, x1 = 0.1011	31 ± 3.1	1149.89 ± 10	1.07 ± 0.06
328.15 K, x1 = 0.1335	33.3 ± 3.3	1191.35 ± 10	1.35 ± 0.08
328.15 K, x1 = 0.1689	33.8 ± 3.4	1231.63 ± 10	–
328.15 K, x1 = 0.1909	33.3 ± 3.3	1254.36 ± 10	–
328.15 K, x1 = 0.197	33.2 ± 3.3	1259.95 ± 10	–
328.15 K, x1 = 0.2154	32.5 ± 3.3	1277.98 ± 10	2.2 ± 0.13
328.15 K, x1 = 0.2524	31.3 ± 3.1	1309.72 ± 10	2.65 ± 0.16
328.15 K, x1 = 0.292	30.2 ± 3	1340.42 ± 10	3.14 ± 0.19
328.15 K, x1 = 0.3959	24.1 ± 2.4	1409.83 ± 10	–
338.15 K, x1 = 0.0122	8.4 ± 0.84	1001.4 ± 10	0.464 ± 0.028
338.15 K, x1 = 0.0215	12.2 ± 1.2	1018.77 ± 10	0.49 ± 0.03
338.15 K, x1 = 0.0299	15.6 ± 1.6	1033.72 ± 10	0.531 ± 0.032
338.15 K, x1 = 0.0403	20.3 ± 2	1051.48 ± 10	–
338.15 K, x1 = 0.0451	–	1060.26 ± 10	–
338.15 K, x1 = 0.0484	22.9 ± 2.3	1064.9 ± 10	–
338.15 K, x1 = 0.0541	24.2 ± 2.4	1074.21 ± 10	–
338.15 K, x1 = 0.0682	27.7 ± 2.8	1096.19 ± 10	–
338.15 K, x1 = 0.0704	28.2 ± 2.8	1099.46 ± 10	0.749 ± 0.045
338.15 K, x1 = 0.0799	30 ± 3	1113.58 ± 10	–
338.15 K, x1 = 0.0832	–	1118.32 ± 10	–
338.15 K, x1 = 0.1011	32.9 ± 3.3	1143.23 ± 10	0.922 ± 0.056
338.15 K, x1 = 0.1335	35.3 ± 3.5	1184.38 ± 10	1.16 ± 0.07
338.15 K, x1 = 0.1689	35.5 ± 3.6	1224.52 ± 10	–
338.15 K, x1 = 0.1909	35 ± 3.5	1246.94 ± 10	–
338.15 K, x1 = 0.197	34.9 ± 3.5	1252.51 ± 10	–
338.15 K, x1 = 0.2154	34.1 ± 3.4	1270.41 ± 10	1.88 ± 0.11
338.15 K, x1 = 0.2524	33.5 ± 3.4	1301.38 ± 10	2.25 ± 0.14
338.15 K, x1 = 0.292	32.4 ± 3.2	1331.63 ± 10	2.66 ± 0.16
338.15 K, x1 = 0.3959	25.9 ± 2.6	1401.65 ± 10	–
